Measured values published in article PMC4632738, “New Peptide-Conjugated Chlorin-Type Photosensitizer Targeting Neuropilin-1 for Anti-Vascular Targeted Photodynamic Therapy” (International Journal of Molecular Sciences, 2015).
Entries after “also recorded” stand apart in the source; their conditions may differ. Read-outs that look alike come from different tables or passages of the source. Each block holds one compound with its values, some of them ahead of it. Ends that are not written are not given here. TPC = not defined here; Ahx = NCCCCCC(=O)O

Experiments:
[1] = target: T1, recombinant NRP-1 protein (Homo sapiens, UniProt O14786); details: cited from earlier work
T1 sequence (O14786 22-923): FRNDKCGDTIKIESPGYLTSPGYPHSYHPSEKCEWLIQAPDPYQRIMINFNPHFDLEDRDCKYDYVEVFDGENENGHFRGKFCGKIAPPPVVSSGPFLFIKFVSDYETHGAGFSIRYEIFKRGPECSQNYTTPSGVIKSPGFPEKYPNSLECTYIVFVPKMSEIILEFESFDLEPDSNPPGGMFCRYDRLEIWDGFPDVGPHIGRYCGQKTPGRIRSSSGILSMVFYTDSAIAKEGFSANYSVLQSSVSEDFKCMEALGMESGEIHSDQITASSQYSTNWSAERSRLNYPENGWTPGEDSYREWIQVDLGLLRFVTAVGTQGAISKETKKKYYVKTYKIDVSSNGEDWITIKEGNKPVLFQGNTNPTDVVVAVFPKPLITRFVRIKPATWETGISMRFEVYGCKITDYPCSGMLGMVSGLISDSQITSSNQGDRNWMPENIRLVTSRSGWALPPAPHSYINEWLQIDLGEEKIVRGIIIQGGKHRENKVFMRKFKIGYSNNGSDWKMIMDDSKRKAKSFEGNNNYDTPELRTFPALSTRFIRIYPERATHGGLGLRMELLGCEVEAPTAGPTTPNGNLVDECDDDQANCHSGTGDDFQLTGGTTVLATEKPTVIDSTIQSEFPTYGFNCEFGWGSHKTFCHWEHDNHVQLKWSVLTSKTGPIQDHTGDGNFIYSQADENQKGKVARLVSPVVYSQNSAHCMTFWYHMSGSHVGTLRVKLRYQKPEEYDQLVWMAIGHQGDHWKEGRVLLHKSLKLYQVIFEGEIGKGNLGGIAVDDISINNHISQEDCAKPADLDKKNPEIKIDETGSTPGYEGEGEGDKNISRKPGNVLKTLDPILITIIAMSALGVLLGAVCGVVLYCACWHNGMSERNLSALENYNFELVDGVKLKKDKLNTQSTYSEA

[2] = In vivo plasma concentration by HPLC after intravenous injection; details: mice, 2.8 mg/kg i.v., sampled at 1, 4 and 24 h
Experimental: The in vivo stability study was carried out with only two of the novel conjugates synthesized; TPC–PEG18–DKPPR and TPC–PEG18–TKPRR were selected because of to their interesting hydrophilicity properties. We selected TPC–Ahx–ATWLPPR conjugate as a reference based on our previous studies. Blood and tissue samples were weighed and kept at −80 °C in polypropylene tubes, until further processing. Extraction of the conjugates from the tissues required first a solubilization step, using TEM buffer (10 mM Tris, 1.66 mM EDTA, 5 mM molybdate, pH 7.4) and homogenization. […] Conjugates levels in the plasma and tissues were determined as a percentage of the injected dose per gram […] (% injected dose/g of tissue) or per milliliter plasma. […]
The in vivo stability analyses were performed by HPLC equipped with programmable software GOLD version 1.6 (Beckman Coulter, Fullerton, CA, USA), an auto sampler injector (507e, System Gold, Beckman Coulter) and a fluorescence detector (RF-10A XL, Shimadzu, Kyoto, Japan). […] Fluorescence excitation and emission wavelengths were detected at 416 and 652 nm, respectively. […] The conjugate levels in plasma and organs were determined from the peak areas and normalized based on standard calibration curves constructed earlier. The data were calculated as the mean value of three mice.

[3] = Photophysical characterization (UV-Vis absorption, fluorescence and singlet oxygen quantum yields); assay type: physicochemical; details: ethanol, room temperature; for Molar Extinction Coefficient Soret ε415: 415 nm; for Molar Extinction Coefficient QIV ε516: 516 nm; for Molar Extinction Coefficient QIII ε543: 543 nm; for Molar Extinction Coefficient QII ε598: 598 nm; for Molar Extinction Coefficient QI ε650: 650 nm; for Fluorescence quantum yield Φf: ±0.02, reference TPP in toluene; for Singlet oxygen quantum yield Φ∆: ±0.05, reference rose Bengal in ethanol
Text: Table 3 summarizes the molar extinction coefficient values of the six conjugates as well as their fluorescence and singlet oxygen quantum yield values.
The photophysical properties of TPC and the TPC–peptide conjugates were characterized using three different techniques; UV/visible absorption (Perkin Elmer Lambda 2 UV-Vis spectrophotometer, Courtaboeuf, France), fluorescence emission (SPEX Fluorolog-3 spectrofluorometer, Jobin Yvon, Longjumeau, Paris, France) and singlet oxygen emission. For UV-Vis measurements, the samples of TPC and the six conjugates were diluted in ethanol and their spectra were determined in the range of 300 to 800 nm. For fluorescence emission spectra, samples with an absorption at 415 nm equal to 0.200 (±0.02) were prepared. Solvent refractive index and absorption efficiencies of fluorescence quantum yields (Φf) were calculated based on a TPP solution in toluene as a fluorescence standard reference (Φf(ref) = 0.11) as described by Equation (2): (2) ϕf=ϕf(ref)×I/Iref×Aref/A×(n/nref)^2 where A and Aref correspond to the absorbance at 415 nm of the sample and TPP, respectively, while I and Iref are the areas under the fluorescence spectra between 600 and 750 nm of the sample and TPP, respectively. n and nref are the refractive indices of solvents used for the sample and TPP, respectively (n/nethanol = 1.361, nref/ntoluene = 1.496).
Singlet oxygen emission spectra were recorded on SPEX 1680 with […] double monochromator with a Xenon arc lamp as excitation source. Singlet oxygen generation was specifically detected at 1270 nm and the emission was monitored by using liquid nitrogen-cooled germanium-detector (EO-817P, North Coast Scientific, North Ridgeville, OH, USA). A solution of rose Bengal in ethanol was used as the reference, ΦΔ(ref) = 0.68 [25]. The singlet oxygen quantum yield was then determined using Equation (3): (3) ϕΔ=ϕΔ(ref)×I/Iref×Aref/A where A and Aref are the UV visible absorbance at 415 nm of the sample and rose Bengal (the reference), respectively, while I and Iref are the peak intensities of luminescence at 1270 nm of the sample and rose Bengal, respectively.

[4] = Shake flask octanol/PBS pH 7.4 distribution coefficient; assay type: physicochemical; details: expressed as log, mean ± S.D.
Experimental: The distribution coefficient values at pH 7.4 from the shake flask method and the retention time from HPLC analysis of TPC and the conjugates are summarized in Table 2. The TPC-spacer-peptides were analyzed by HPLC (column Altech, Apollo C18 reverse-phase (5 μm; 250 mm × 4.6 mm)) on a Shimadzu LC-10ATvp, monitored by a UV/Visible detector at 214 and 415 nm on a SPD-10A UV-Visible detector. […] The log DpH7.4 value for TPC–Ahx–ATWLPPR obtained (2.61 ± 0.2) was also consistent with data published by Tirand et al., confirming the hydrophobic characteristic of TPC and the TPC–Ahx–ATWLPPR conjugate.
Hydrophilic and hydrophobic characteristics were also evaluated using the “shake flask” method to determine the solubility of the free TPC and the conjugates. […] The distribution coefficient, DpH7.4 was then expressed as log (mean ± S.D., n = 6).

HUVEC = tested on: HUVEC; parameters: method as in PMID 17283031; details: cited from earlier work; for Light doses 50 values: red light
[5] = In vivo stability in plasma by MALDI-TOF MS; details: 24 h after administration, mice
Experimental: Female athymic Swiss nude/nude mice (7–9 weeks, weight range 20–25 g) were obtained from Harlan (Gannat, France). The in vivo study we conducted was based on the results obtained from the ELISA test conducted earlier. The conjugates of TPC–Ahx–ATWLPPR, TPC–PEG18–DKPPR and TPC–PEG18–TKPRR (2.8 mg/kg) were injected intravenously via the tail vein in ethanol–PEG 400–water (2:3:5, v/v/v). The mice were kept in the dark after the injection. After 1, 4 and 24 h, blood samples were collected and plasma was separated from the blood. The mice were sacrificed and tissues were carefully excised. All samples were kept in the dark at −80 °C in polypropylene tubes until further analysis.
MALDI-TOF MS analyses were carried out on a Bruker Reflex IV time-of-flight mass spectrometer (Bruker-Daltonic, Bremen, Germany) equipped with the SCOUT 384 probe ion source fitted with a nitrogen pulsed laser (337 nm, VSD-337ND model, Laser Science Inc., Boston, MA, USA). The laser output energy was 400 μJ/pulse. Positives ions were accelerated with a 200 ns extraction delay. The reflector voltage was 23 kV. […]
MALDI-TOF MS analyses were performed using 2,5-dihydroxybenzoic acid (DHB) (Sigma-Aldrich, Saint-Quentin-Fallavier, France) as the matrix. […] All samples were analyzed in duplicate.

[6] = parameters: method as in PMID 17283031; details: cited from earlier work
[7] = target: T1, recombinant NRP-1 protein; experiment: Competitive binding ELISA, displacement of biotinylated VEGF165
Experimental: The molecular affinity of the different TPC–peptide conjugates for recombinant NRP-1 protein was estimated through a competitive binding test using biotinylated VEGF165 to NRP-1 receptor recognition recombinant. As biotinylated VEGF165 binding to this receptor is heparin dependent, the competitive binding tests were performed in the presence of heparin (2 µg/mL).
The conjugates were first dissolved in DMSO and subsequently diluted in methanol. Tween-20 was added in the blocking buffer to assist in the solubilization of the conjugate. The samples were prepared in ten different concentrations ranging from 3 to 960 µM.

[8] = cited from earlier work

Compound: TKPPR
Displacement of the binding of VEGF165 to recombinant NRP-1 (ELISA) ([1]; free peptides): able to displace the binding of VEGF165

Compound: TPC–Ahx–ATWLPPR: TPC coupled via 6-aminohexanoic acid spacer to peptide ATWLPPR; group's earlier NRP-1 targeting conjugate ({TPC-Ahx}-ATWLPPR; reading uncertain; also: printed as TPC–Ahx–ATWLPPR)
Time up to which conjugate is found in plasma after intravenous injection [2]: up to 24 h
Molar Extinction Coefficient Soret ε415 [3]: 74000 L·M^−1·cm^−1
Molar Extinction Coefficient QIV ε516 [3]: 6800 L·M^−1·cm^−1
Molar Extinction Coefficient QIII ε543 [3]: 4900 L·M^−1·cm^−1
Molar Extinction Coefficient QII ε598 [3]: 2600 L·M^−1·cm^−1
Molar Extinction Coefficient QI ε650 [3]: 12000 L·M^−1·cm^−1
Fluorescence quantum yield Φf [3]: 0.18
Singlet oxygen quantum yield Φ∆ [3]: 0.39
Shake Flask Method Distribution Coefficient, D (log D pH7.4) ([4]; n = 6): 2.61 ± 0.2
Enhancement of photodynamic activity versus TPC (HUVEC): 10.4 fold
Light doses 50 values (HUVEC): 0.47 ± 0.23 J/cm^2
Displacement of the binding of VEGF165 [1]: managed to displace the binding of VEGF165
IC50 ([1]; read-out: IC50, displacement of VEGF165 binding to NRP-1): 171 µM
MS signal of peak m/z 616 (attributed to the TPC moiety) in plasma [5]: not detected
Time for which conjugate could be detected in the plasma [6]: ≥ 48 h

IC50 [7]: 1 µM
Compound: TKPRR [TKPRR]

Molar Extinction Coefficient Soret ε415 [3]: 76000 L·M^−1·cm^−1
Molar Extinction Coefficient QIV ε516 [3]: 8000 L·M^−1·cm^−1
Molar Extinction Coefficient QIII ε543 [3]: 5000 L·M^−1·cm^−1
Molar Extinction Coefficient QII ε598 [3]: 4000 L·M^−1·cm^−1
Molar Extinction Coefficient QI ε650 [3]: 12000 L·M^−1·cm^−1
Fluorescence quantum yield Φf [3]: 0.18
Singlet oxygen quantum yield Φ∆ [3]: 0.47
logD ([4]; n = 6, read-out: Shake Flask Method Distribution Coefficient, D (log D pH7.4)): 2.61 ± 0.2
Compound: O=C(O)c1ccc(-c2c3nc(c(-c4ccccc4)c4ccc([nH]4)c(-c4ccccc4)c4nc(c(-c5ccccc5)c5ccc2[nH]5)CC4)C=C3)cc1 [TPC, 5-(4-carboxyphenyl)-10,15,20-triphenyl chlorin]
Displacement of biotinylated VEGF165 binding onto NRP-1 protein ([7]; heparin 2 µg/mL): failed to displace; also recorded: did not show any significant binding at all
Light doses 50 values (HUVEC): 4.9 ± 0.64 J/cm^2
Displacement of the binding of VEGF165 [1]: failed to do so

IC50 [7]: 1 µM
Compound: DKPPR [DKPPR]

Compound: C1=Cc2nc1c(-c1ccccc1)c1ccc([nH]1)c(-c1ccccc1)c1nc(c(-c3ccccc3)c3ccc([nH]3)c2-c2ccccc2)C=C1 [TPP]
Fluorescence quantum yield of standard reference Φf(ref) ([8]; in toluene): 0.11

Compound: O=C([O-])c1c(Cl)c(Cl)c(Cl)c(Cl)c1-c1c2cc(I)c(=O)c(I)c-2oc2c(I)c([O-])c(I)cc12.[Na+].[Na+] [rose Bengal]
Singlet oxygen quantum yield of standard reference ΦΔ(ref) ([8]; in ethanol): 0.68
